Laboratory results from patent US6649608B2, “2,4-di(hetero-)arylamino (oxy)-5-substituted pyrimidines as antineoplastic agents” (AstraZeneca AB, priority 2000, dated 2003).
pIC50: −log10 of the molar value.

Experiments:
[1] = biological target: T1, human Focal Adhesion Kinase (FAK) (Homo sapiens, UniProt Q05397); assay: FAK3 Kinase Inhibition Assay (in vitro enzyme ELISA); type: biochemical; conditions: read-out: FAK inhibitory activity IC50
T1 construct: FAK (fall length human cDNA described by Andre et al); made in house; host or cells: insect cells (Sf21; printed 'Sf12'), baculovirus, pFastbac 1; cell lysate supernatant used as enzyme stock
Source text: This assay determines the ability of a test compound to inhibit tyrosine kinase activity of human Focal Adhesion Kinase (FAK).
DNA encoding FAK is obtained by total gene synthesis (Edwards M, International Biotechnology Lab 5(3), 19-25, 1987) or by cloning. These are then expressed in a suitable expression system to obtain polypeptide with tyrosine kinase activity.
Active FAK protein has been previously expressed in a baculovirus system using a similar N-terminal 6-histidine tag (Protein Expression And Purification, 1996, 7: 12-18). The human FAK cDNA was cloned into the baculovirus transplacement vector, pFastbac 1 (Life Technologies), and the recombinant construct was co-transfected into insect cells (for example Spodoptera frugiperda 21(Sf21)) with viral DNA to prepare recombinant baculovirus (details of the methods for the assembly of recombinant DNA molecules and the preparation and use of recombinant baculovirus can be found in standard texts for example Sambrook et al, 1989, Molecular cloning—A Laboratory Manual, 2nd edition, Cold Spring Harbour Laboratory Press and O'Reilly et al, 1992, Baculovirus Expression Vectors—A Laboratory Manual, W.H. Freeman and Co, New York. Details specific to the use of the pFastbac (‘Bac to Bac’) system are provided in Anderson et al., 1995, FOCUS (Life Technologies Bulletin Magazine), 17, p53.) […]

CDK4/Cyclin D1 = biological target: T2, CDK4/Cyclin D1 (Homo sapiens, UniProt P11802); assay: CDK4 Inhibition Assay (SPA, GST-Rb substrate); type: biochemical; conditions: in vitro kinase assay; read-out: CDK4 inhibitory activity IC50
T2 construct: made in house; host or cells: SF21 insect cells (Spodoptera frugiperda), baculovirus co-infection; vector pVL1393
Protocol: The compounds were tested in an in vitro kinase assay in 96 well format using Scintillation Proximity Assay (SPA—obtained from Amersham) for measuring incorporation of [γ-33-P]-Adenosine Triphosphate into a test substrate (GST-Retinoblastoma). In each well was placed the compound to be tested (diluted in DMSO and water to correct concentrations) and in control wells either p16 as an inhibitor control or DMSO as a positive control.
Approximately 0.5 μl of CDK4/Cyclin D1 partially-purified enzyme (amount dependent on enzyme activity) diluted in 25 μl incubation buffer was added to each well then 20 μl of GST-Rb/ATP/ATP33 mixture (containing 0.5 μg GST-Rb and 0.2 μM ATP and 0.14 μCi [γ-33-P]-Adenosine Triphosphate), and the resulting mixture shaken gently, then incubated at room temperature for 60 minutes. […]
The plates were sealed with Topseal-S plate sealers, left for two hours then spun at 2500 rpm, 1124×g., for 5 minutes. The plates were read on a Topcount for 30 seconds per well. […]
E. coli paste was resuspended in 10 ml/g of NETN buffer (50 mM Tris pH 7.5, 120 mM NaCl, 1 mM EDTA, 0.5% v/v NP-40, 1 mM PMSF, 1 ug/ml leupeptin, 1 ug/ml aprotinin and 1 ug/ml pepstatin) and sonicated for 2×45 seconds per 100 ml homogenate. […] The final product was analysed by Sodium Dodeca Sulfate (SDS) PAGE (Polyacrylamide gel) using 8-16% Tris-Glycine gels (Novex, San Diego, USA). […]

T1 sequence (Q05397 whole entry): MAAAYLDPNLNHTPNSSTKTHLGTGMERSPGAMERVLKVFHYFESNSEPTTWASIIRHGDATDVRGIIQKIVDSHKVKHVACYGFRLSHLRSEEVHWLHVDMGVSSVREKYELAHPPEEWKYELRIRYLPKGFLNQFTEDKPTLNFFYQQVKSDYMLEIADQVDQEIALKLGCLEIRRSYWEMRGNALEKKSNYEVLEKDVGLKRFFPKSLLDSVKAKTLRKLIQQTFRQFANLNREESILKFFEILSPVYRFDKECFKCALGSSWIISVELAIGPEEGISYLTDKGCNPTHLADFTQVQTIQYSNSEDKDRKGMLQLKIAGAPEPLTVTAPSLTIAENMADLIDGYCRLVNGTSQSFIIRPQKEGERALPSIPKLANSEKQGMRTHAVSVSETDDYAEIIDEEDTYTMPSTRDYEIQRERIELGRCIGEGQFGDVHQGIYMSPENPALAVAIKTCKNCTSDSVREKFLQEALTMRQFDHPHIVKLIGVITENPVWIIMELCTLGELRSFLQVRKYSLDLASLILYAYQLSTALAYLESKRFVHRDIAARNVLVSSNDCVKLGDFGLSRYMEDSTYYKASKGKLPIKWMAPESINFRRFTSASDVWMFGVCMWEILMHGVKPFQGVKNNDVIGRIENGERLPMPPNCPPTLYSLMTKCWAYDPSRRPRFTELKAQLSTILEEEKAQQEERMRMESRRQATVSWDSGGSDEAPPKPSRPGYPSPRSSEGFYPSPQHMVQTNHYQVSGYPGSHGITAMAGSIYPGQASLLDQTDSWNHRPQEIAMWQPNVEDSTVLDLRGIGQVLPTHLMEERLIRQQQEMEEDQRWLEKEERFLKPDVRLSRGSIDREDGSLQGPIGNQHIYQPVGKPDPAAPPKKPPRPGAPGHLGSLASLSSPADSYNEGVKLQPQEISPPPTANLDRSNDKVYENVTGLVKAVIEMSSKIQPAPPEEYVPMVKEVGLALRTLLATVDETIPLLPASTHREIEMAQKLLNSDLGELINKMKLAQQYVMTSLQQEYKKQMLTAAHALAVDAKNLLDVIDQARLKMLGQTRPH
T2 sequence (P11802 whole entry): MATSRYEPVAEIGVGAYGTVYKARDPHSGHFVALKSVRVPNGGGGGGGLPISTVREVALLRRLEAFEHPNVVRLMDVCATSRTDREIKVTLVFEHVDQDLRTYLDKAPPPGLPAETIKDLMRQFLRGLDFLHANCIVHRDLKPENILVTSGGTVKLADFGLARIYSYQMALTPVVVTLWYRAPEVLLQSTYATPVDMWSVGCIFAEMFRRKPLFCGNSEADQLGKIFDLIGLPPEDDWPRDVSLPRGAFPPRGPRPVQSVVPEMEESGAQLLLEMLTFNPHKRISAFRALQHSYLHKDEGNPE
T2 sequence (P24385 whole entry partner): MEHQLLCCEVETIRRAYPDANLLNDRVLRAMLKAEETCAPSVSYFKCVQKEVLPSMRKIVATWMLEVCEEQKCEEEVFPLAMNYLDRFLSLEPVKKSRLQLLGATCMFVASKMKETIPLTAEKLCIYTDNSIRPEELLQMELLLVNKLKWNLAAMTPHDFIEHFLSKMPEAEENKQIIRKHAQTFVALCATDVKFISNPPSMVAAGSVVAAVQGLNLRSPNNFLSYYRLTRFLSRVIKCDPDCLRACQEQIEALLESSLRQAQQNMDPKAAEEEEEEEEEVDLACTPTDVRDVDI

| pIC50 [1] | pIC50 (CDK4/Cyclin D1) | Structure (SMILES) |
| --- | --- | --- |
| 7.01 |  | CCCCN(CCCC)CCCNC(=O)c1ccc(Nc2ncc(Br)c(Nc3ccccc3)n2)cc1 [Example 47] |
|  | 6.63 | O=C(NCCN1CCCCC1)c1ccc(Nc2ncc(Br)c(Nc3ccccc3)n2)cc1 [Example 45] |
| 6.09 |  | O=C(c1ccc(Nc2ncc(Br)c(Nc3ccccc3)n2)cc1)N1CCC(N2CCCC2)CC1 [Example 52] |
